Data taken from EP0776155B1, “DELIVERY OF EXOGENOUS CHEMICAL SUBSTANCES TO PLANT TISSUES” (MONSANTO COMPANY, priority 1994, dated 1996).

Legend:
Type in all cases: in vivo
[1] = tested on: velvetleaf (Abutilon theophrasti, ABUTH); test: Example 49: percent control, dry ice (solid carbon dioxide) injury then glyphosate spray
Method: In this Example illustrative of the invention, velvetleaf (Abutilon theophrasti, ABUTH) seeds were planted in 4-inch (10.1-cm) square pots filled with 100% silt loam to which 35 g/cu ft (1.25 kg/m^3) IBDU fertilzer were added, and the seeds were covered with 50% Rediearth plus 50% silt loam without fertilizer. […] The same settings were maintained before and after treatment.
Physical injury in this Example was inflicted on the above-ground portions of the plants, two weeks after planting, by means of 15-30 particles of dry ice (carbon dioxide in its solid phase) propelled on to each plant using a 1 oz (28.3 ml) French square bottle having two 3 mm holes in the lid, with vigorous shaking of the bottle 8-12 inches (20-30 cm) above the plant canopy.
After dry ice treatment, plants were sprayed with glyphosate as its isopropylamine salt, in the form of the aqueous concentrate formulation MON 2139 of Monsanto Company. Plants with and without the dry ice treatment were sprayed at the same time using a track sprayer calibrated to deliver 20 gallons/acre (187 liters/ha) water with an 8002E nozzle having a 50-mesh screen, 16 inches (41 cm) above the plant canopy. Each treatment was replicated three times. Similar glyphosate treatments were applied to plants which had not received dry ice. Plants were returned to the greenhouse after spraying. […]

[2] = tested on: velvetleaf (Abutilon theophrasti, ABUTH); test: Example 12: percent control, abrasion 5, 2, 1 days before glyphosate application; settings: glyphosate rate (kg a.e./ha)
Method: In these Examples illustrative of the invention, velvetleaf (Abutilon theophrasti, ABUTH) seeds were planted in 4-inch (10.1 cm) square pots containing 100% silt loam soil to which 35 grams/cu ft (1.25 kg/m^3) IBDU fertilizer was added, and covered with a mix of 50% Rediearth plus 50% silt loam. The pots were sub-irrigated and the seedlings thinned after emergence to 2 plants per pot.
Abrasion was applied using propelled 200-mesh garnet exactly as described for Examples 1-9. The herbicide used in these Examples was glyphosate as its isopropylamine salt, applied as diluted MON 2139, exactly as described for Examples 1-9.
The time period between abrasion and herbicide application was varied as follows. In Example 11, all abrasion treatments were applied within a short period of time, and herbicide applications were made 2, 4 and 24 hours after abrasion. A set of abraded plants received no herbicide at any time. In addition, herbicide applications were made to unabraded plants at two times: (i) at the time of abrasion, and (ii) 24 hours after the time of abrasion. In Example 12, all herbicide applications were made within a short period of time, and abrasion was applied 5, 2 and 1 days before herbicide application. In addition, herbicide application was made to unabraded plants.
Three replications were performed of every treatment. After treatment, all plants were placed in the greenhouse for the remainder of the experiment, and sub-irrigated. The first replicate was placed in one block in order of the treatment list for ease of viewing and the remaining replicates were randomly placed in two separate blocks.
After an interval of 12-14 days after herbicide application, a visual evaluation was performed to estimate herbicidal efficacy as percent control of treated plants compared to untreated check plants.

[3] = tested on: silvergrass (Vulpia sp., VLPSS); test: Example 51: field experiment, percent control, bruising or blasting then glyphosate spray; settings: 14 days after glyphosate application
Method: (§1) In this Example illustrative of the invention, a field experiment was conducted in the Australian Capital Territory on 5-10 cm high vegetation consisting primarily of white flatweed (Hypochoeris microcephala, HRYMI) at the rosette stage of growth and silvergrass (Vulpia sp., VLPSS) at the 1-3 tiller stage. Plots were established, 2 m wide and 10 m long, with 3 replications of each treatment.
(§2) Plots received either no physical injury, or one of two injury treatments, a prior art method described herein as "bruising" and a method of the present invention described herein as "blasting". Bruising involved driving a 2 metric ton four-wheel drive vehicle fitted with rubber tires, twice over the plot in opposite directions. For blasting, a hand-held sandblaster was used having a container of capacity 1000 cm^3 slung under the gun body. The sandblaster was made of die-cast aluminum alloy and equipped with a 6 mm nozzle. The operating pressure was 95 lb/sq inch (655 kPa). The abrasive used was a commercial product consisting of fine glass particles.
(§3) Within an hour after bruising or blasting, plots received an application of glyphosate as its isopropylamine salt in the form of the aqueous concentrate formulation sold in Australia as Roundup® herbicide, diluted appropriately in water. Application was made using a hand-held boom sprayer fitted with 11001 nozzles, operating at 250 kPa pressure and delivering 90 liters/ha spray volume.
(§4) After an interval of 14 days, a visual evaluation was performed to estimate herbicidal efficacy as percent control of plants in treated plots compared to untreated check plots.

[4] = tested on: white flatweed (Hypochoeris microcephala, HRYMI); test: as above; settings: 14 days after glyphosate application
Method: as §1, §2, §3, §4

[5] = glyphosate rate 0.18 kg a.e./ha, injury treatment blasting
[6] = glyphosate rate 0.18 kg a.e./ha, injury treatment bruising
[7] = glyphosate rate 0.18 kg a.e./ha, injury treatment none
[8] = glyphosate rate 0.25 kg a.e./ha, injury treatment blasting
[9] = glyphosate rate 0.25 kg a.e./ha, injury treatment bruising
[10] = glyphosate rate 0.25 kg a.e./ha, injury treatment none
[11] = glyphosate rate 0.36 kg a.e./ha, injury treatment blasting
[12] = glyphosate rate 0.36 kg a.e./ha, injury treatment bruising
[13] = glyphosate rate 0.36 kg a.e./ha, injury treatment none

## O=C(O)CNCP(=O)(O)O [glyphosate, N-phosphonomethylglycine]
[1]; glyphosate rate 0.014 kg a.i./ha, not treated with dry ice, 5 DAT
  percent control of ABUTH: 0%
[1]; glyphosate rate 0.014 kg a.i./ha, not treated with dry ice, 11 DAT
  percent control of ABUTH: 0%
[1]; glyphosate rate 0.014 kg a.i./ha, treated with dry ice, 5 DAT
  percent control of ABUTH: 0%
[1]; glyphosate rate 0.014 kg a.i./ha, treated with dry ice, 11 DAT
  percent control of ABUTH: 0%
[1]; glyphosate rate 0.028 kg a.i./ha, not treated with dry ice, 5 DAT
  percent control of ABUTH: 0%
[1]; glyphosate rate 0.028 kg a.i./ha, not treated with dry ice, 11 DAT
  percent control of ABUTH: 0%
[1]; glyphosate rate 0.028 kg a.i./ha, treated with dry ice, 5 DAT
  percent control of ABUTH: 0%
[1]; glyphosate rate 0.028 kg a.i./ha, treated with dry ice, 11 DAT
  percent control of ABUTH: 0%
[1]; glyphosate rate 0.056 kg a.i./ha, not treated with dry ice, 5 DAT
  percent control of ABUTH: 0%
[1]; glyphosate rate 0.056 kg a.i./ha, not treated with dry ice, 11 DAT
  percent control of ABUTH: 0%
[1]; glyphosate rate 0.056 kg a.i./ha, treated with dry ice, 5 DAT
  percent control of ABUTH: 0%
[1]; glyphosate rate 0.056 kg a.i./ha, treated with dry ice, 11 DAT
  percent control of ABUTH: 2%
[1]; glyphosate rate 0.11 kg a.i./ha, not treated with dry ice, 5 DAT
  percent control of ABUTH: 8%
[1]; glyphosate rate 0.11 kg a.i./ha, not treated with dry ice, 11 DAT
  percent control of ABUTH: 0%
[1]; glyphosate rate 0.11 kg a.i./ha, treated with dry ice, 5 DAT
  percent control of ABUTH: 22%
[1]; glyphosate rate 0.11 kg a.i./ha, treated with dry ice, 11 DAT
  percent control of ABUTH: 8%
[1]; glyphosate rate 0.21 kg a.i./ha, not treated with dry ice, 5 DAT
  percent control of ABUTH: 60%
[1]; glyphosate rate 0.21 kg a.i./ha, not treated with dry ice, 11 DAT
  percent control of ABUTH: 73%
[1]; glyphosate rate 0.21 kg a.i./ha, treated with dry ice, 5 DAT
  percent control of ABUTH: 71%
[1]; glyphosate rate 0.21 kg a.i./ha, treated with dry ice, 11 DAT
  percent control of ABUTH: 83%
[1]; glyphosate rate 0.45 kg a.i./ha, not treated with dry ice, 5 DAT
  percent control of ABUTH: 80%
[1]; glyphosate rate 0.45 kg a.i./ha, not treated with dry ice, 11 DAT
  percent control of ABUTH: 100%
[1]; glyphosate rate 0.45 kg a.i./ha, treated with dry ice, 5 DAT
  percent control of ABUTH: 89%
[1]; glyphosate rate 0.45 kg a.i./ha, treated with dry ice, 11 DAT
  percent control of ABUTH: 100%
[1]; glyphosate rate 0.89 kg a.i./ha, not treated with dry ice, 5 DAT
  percent control of ABUTH: 97%
[1]; glyphosate rate 0.89 kg a.i./ha, not treated with dry ice, 11 DAT
  percent control of ABUTH: 100%
[1]; glyphosate rate 0.89 kg a.i./ha, treated with dry ice, 5 DAT
  percent control of ABUTH: 93%
[1]; glyphosate rate 0.89 kg a.i./ha, treated with dry ice, 11 DAT
  percent control of ABUTH: 100%
[2]; abraded before 0 days, glyphosate 0.056 kg a.e./ha
  percent control of ABUTH 12 days after glyphosate application: 79%
[2]; abraded before 0 days, glyphosate 0.11 kg a.e./ha
  percent control of ABUTH 12 days after glyphosate application: 95%
[2]; abraded before 0 days, glyphosate 0.22 kg a.e./ha
  percent control of ABUTH 12 days after glyphosate application: 100%
[2]; abraded before 1 day, glyphosate 0.056 kg a.e./ha
  percent control of ABUTH 12 days after glyphosate application: 77%
[2]; abraded before 1 day, glyphosate 0.11 kg a.e./ha
  percent control of ABUTH 12 days after glyphosate application: 92%
[2]; abraded before 1 day, glyphosate 0.22 kg a.e./ha
  percent control of ABUTH 12 days after glyphosate application: 100%
[2]; abraded before 2 days, glyphosate 0.056 kg a.e./ha
  percent control of ABUTH 12 days after glyphosate application: 76%
[2]; abraded before 2 days, glyphosate 0.11 kg a.e./ha
  percent control of ABUTH 12 days after glyphosate application: 93%
[2]; abraded before 2 days, glyphosate 0.22 kg a.e./ha
  percent control of ABUTH 12 days after glyphosate application: 100%
[2]; abraded before 5 days, glyphosate 0.056 kg a.e./ha
  percent control of ABUTH 12 days after glyphosate application: 52%
[2]; abraded before 5 days, glyphosate 0.11 kg a.e./ha
  percent control of ABUTH 12 days after glyphosate application: 73%
[2]; abraded before 5 days, glyphosate 0.22 kg a.e./ha
  percent control of ABUTH 12 days after glyphosate application: 97%
[2]; abraded before 5 days, glyphosate 0.45 kg a.e./ha
  percent control of ABUTH 12 days after glyphosate application: 100%
[3]; [5]
  percent control VLPSS: 77%
[3]; [6]
  percent control VLPSS: 78%
[3]; [7]
  percent control VLPSS: 65%
[3]; [8]
  percent control VLPSS: 82%
[3]; [9]
  percent control VLPSS: 83%
[3]; [10]
  percent control VLPSS: 85%
[3]; [11]
  percent control VLPSS: 98%
[3]; [12]
  percent control VLPSS: 83%
[3]; [13]
  percent control VLPSS: 95%
[4]; [5]
  percent control HRYMI: 77%
[4]; [6]
  percent control HRYMI: 77%
[4]; [7]
  percent control HRYMI: 62%
[4]; [8]
  percent control HRYMI: 100%
[4]; [9]
  percent control HRYMI: 80%
[4]; [10]
  percent control HRYMI: 78%
[4]; [11]
  percent control HRYMI: 100%
[4]; [12]
  percent control HRYMI: 93%
[4]; [13]
  percent control HRYMI: 92%
